# According to article PMC12176259, “Bacterial transcriptional repressor NrdR – a flexible multifactorial nucleotide sensor” (The Febs Journal, 2025):
# How the values were obtained:
# E. coli NrdR (EcoNrdR) [1] = target: T1, E. coli NrdR (EcoNrdR) (Escherichia coli, UniProt P0A8D0); assay: ITC, one set of sites; format: binding
# T1 construct: full-length wild type, C-terminal His6 tag (pET30a(+)), E. coli BL21(DE3); tag not reported removed; co-purified nucleotides stripped for ITC (apo-NrdR); apo dimer, tetramer with ATP-dATP or ADP-dATP; SeMet version for 9FVR
# Text: ITC, one set of sites on E. coli NrdR (EcoNrdR)
# E. coli NrdR (EcoNrdR) [2] = target: T1, E. coli NrdR (EcoNrdR); assay: X-ray crystal structure, […] Å; format: binding; settings: with dATP and Mg2+; inner site
# T1 sequence (P0A8D0 whole entry): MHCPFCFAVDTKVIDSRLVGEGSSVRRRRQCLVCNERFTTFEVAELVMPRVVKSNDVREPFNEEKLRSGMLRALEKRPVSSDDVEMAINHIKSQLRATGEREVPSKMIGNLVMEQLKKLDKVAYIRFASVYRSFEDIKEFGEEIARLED
SMILES,Kd (E. coli NrdR (EcoNrdR) [1]),"X-ray crystal structure, 2.33 Å (E. coli NrdR (EcoNrdR) [2])"
Nc1ncnc2c1ncn2[C@@H]1O[C@H](COP(=O)(O)OP(=O)(O)O)[C@@H](O)[C@H]1O [ADP],0.343 ± 0.019 µM,–
Nc1ncnc2c1ncn2[C@@H]1O[C@H](COP(=O)(O)OP(=O)(O)NP(=O)(O)O)[C@@H](O)[C@H]1O [AMPPNP],–,"In complex with dATP and AMPPNP, EcoNrdR is a tetramer"
Nc1ncnc2c1ncn2[C@@H]1O[C@H](COP(=O)(O)OP(=O)(O)OP(=O)(O)O)[C@@H](O)[C@H]1O [ATP],0.346 ± 0.093 µM,–
Nc1ncnc2c1ncn2[C@H]1C[C@H](O)[C@@H](COP(=O)(O)OP(=O)(O)OP(=O)(O)O)O1 [dATP],0.61 ± 0.231 µM,–
